# Assay results taken from patent US10626110B2, “Polymorph of pazopanib hydrochloride and preparation process thereof” (FORMOSA LABORATORIES, INC., priority 2018, dated 2020).
# Where a name gives a salt, the structure may show the parent alone. Read-outs that look alike come from different tables or passages of the source.
# Legend:
# [1] = Solubility analysis in 0.1 M HCl and phosphate buffer (pH 4.5 and pH 6.8); assay type: physicochemical
# Description: The solubility of Pazopanib HCl Form F and Pazopanib HCl Form A in 0.1 M HCl and phosphate buffer (pH4.5 and pH6.8) was examined in the present analysis.
# [2] = Stability / storage (statement only, no method described); assay type: physicochemical; settings: no data given
Solubility (descriptive term) ([1]; 0.1M HCl),"solubility ([1]; 0.1 M HCl, simulated gastric fluid, thermodynamic from solid, 0.1M HCl, read-out: Solubility) [µg/mL]","Solubility (descriptive term) ([1]; Phosphate buffer, pH 4.5)","Solubility (descriptive term) ([1]; Phosphate buffer, pH 6.8)","solubility ([1]; 0.1M HCl, hydrochloride) [µg/mL]",Compound,Solubility compared with Pazopanib HCl Form A ([1]; 0.1M HCl),Stability [2]
Very slightly soluble,584,Practically insoluble,Practically insoluble,,"Cc1ccc(Nc2nccc(N(C)c3ccc4c(C)n(C)nc4c3)n2)cc1S(N)(=O)=O [Pazopanib HCl Form A, Pazopanib hydrochloride]",,
Very slightly soluble,,Practically insoluble,Practically insoluble,669,"Cc1ccc(Nc2nccc(N(C)c3ccc4c(C)n(C)nc4c3)n2)cc1S(N)(=O)=O [Pazopanib HCl Form F, Pazopanib hydrochloride]",better solubility in 0.1 M HCl than Pazopanib HCl Form A,"better stability, and can be stored for a long time"
